Data reported in US8629251B2, “Specific detection and quantification of phosphatidic acid using an Arabidopsis trigalactosyldiacylglycerol-4 (TGD4) protein” (Board of Trustees of Michigan State University, priority 2008, dated 2014).
Blank lines part the entries; values can stand above or below the molecule they belong to. Where no end group is shown, it is not given here.

Tests used:
Assay type in all cases: binding
[1] = molecular target: T1, Arabidopsis TGD4, DsRED-TGD4-His, full-length TGD4 1-479 (SEQ ID NO: 132) (Arabidopsis thaliana, UniProt Q9M903); experiment: Liposome association assay, DsRED-TGD4-His; settings: 40 mol % PtdOH and 60 mol % PtdCho liposomes, FIG. 18C, D
T1 sequence (Q9M903 1-479): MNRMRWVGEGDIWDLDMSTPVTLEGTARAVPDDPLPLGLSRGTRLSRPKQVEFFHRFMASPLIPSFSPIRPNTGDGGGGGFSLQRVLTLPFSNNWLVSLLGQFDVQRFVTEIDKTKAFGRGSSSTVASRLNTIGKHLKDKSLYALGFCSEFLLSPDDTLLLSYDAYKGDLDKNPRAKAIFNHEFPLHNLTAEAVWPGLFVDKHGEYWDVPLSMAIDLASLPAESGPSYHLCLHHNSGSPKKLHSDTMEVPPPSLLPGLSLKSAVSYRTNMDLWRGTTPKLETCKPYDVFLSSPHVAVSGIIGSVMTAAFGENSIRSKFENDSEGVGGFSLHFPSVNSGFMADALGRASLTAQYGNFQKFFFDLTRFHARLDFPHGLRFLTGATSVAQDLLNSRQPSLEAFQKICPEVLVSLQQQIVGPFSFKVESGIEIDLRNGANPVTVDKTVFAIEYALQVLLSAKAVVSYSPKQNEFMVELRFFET
Protocol: Liposome Association Assay:
(§1) The liposome association assay was adapted from (Awai et al., 2006, Lu and Benning, 2009) with minor modifications. Dioleoyl-PtdCho and PtdOH with different acyl chain lengths and desaturation levels were used for making liposomes. In other liposomes 1-palmitoyl-2-(12-((7-nitro-2-1,3-benzoxadiazol-4-yl)amino)dodecanoyl)-sn-glycero-3-phosphate (NBD-PtdOH; Avanti, Alabaster, Ala.) was used. The lipids were mixed at indicated ratios to give a total lipid amount of 250 μg. The lipids were dried under a stream of nitrogen, resuspended in 0.5 ml TBS buffer with 0.2 M choline chloride and hydrated at 37° C. for 1 hour followed by vigorous vortexing for 2 minutes. The resulting multi-lamellar vesicles were centrifuged at 13,000×g for 10 minutes and then washed once with TBS buffer containing 0.2 M choline chloride. The liposomes were resuspended into 100 μl TBS buffer with 0.2 M choline chloride and incubated with 2 μg purified DsRED-TGD4-His protein and its derivatives. The protein liposome mixture was incubated on ice for 30 minutes followed by centrifugation at 13,000×g for 10 minutes and two washes with 500 μl TBS containing 0.2 M choline chloride. The resulting protein-liposome pellet was resuspended in 20 μl 2× Laemmli buffer (Laemmli, 1970) and processed by SDS-PAGE (Shapiro and Maizel, 1969).

[2] = Liposome-association assay of DsRed-TGD2 fusion proteins; settings: PA/PC or 100% PA liposomes
Protocol: In this assay, purified recombinant proteins were incubated with liposomes for 30 min at 30° C. before centrifugation at 20,000 g for 10 min to pellet the liposomes. Proteins bound to the liposomes were found associated with the lipid pellet, whereas non-binding proteins remained in the supernatant. In an effort to determine the optimal concentration of PA required for high specificity binding, a PA/PC liposome mixture containing varying weight fractions of PA was prepared and incubated with DsRed-TGD2CWT or DsRed alone.
The liposome association assay was performed as previously reported. (31). Briefly, lipids (dioleoyl-phosphatidylcholine, DOPC or dioleoyl-PA, DOPA) were incubated in TBS (50 mM Tris-HCl, pH 7; 0.1 M NaCl) at 37° C. for an hour followed by vigorous vortexing for 5 min. The liposomes were precipitated at 20,000 g and washed twice with ice-cold TBS.
Liposomes (200 μg) were mixed with purified DsRed-TGD2 fusion protein and TBS to make a final 100 μL solution. […] The liposome pellet mixed with sample buffer was analyzed by SDS-PAGE (28). […]
The protein band was visualized by chemiluminescent detection kit from Sigma. The autoradiography film was scanned, distinct protein bands were quantified using computer software Multi Gauge V3.0 (Fujifilm USA, Valhalla, N.Y.) and resulted data were plotted and analyzed by OriginPro8 (Origin lab corporation, Northampton, Mass.).

[3] = Liposome association assay of DsRED-TGD4-His and derivatives; settings: dioleoyl-PtdOH/dioleoyl-PtdCho liposomes, 0 to 80% PtdOH by weight, FIG. 19
Protocol: as §1

[4] = Protein-lipid overlay assay of DsRED-TGD4 fusion proteins
Protocol: The protein-lipid overlay assay was modified from (Awai et al., 2006, Lu and Benning, 2009). Phosphoinositol-4,5-bisphosphate PIP2) lipid strips were purchased from Echelon Biosciences (Salt Lake City, Utah). Lipids spotted onto membranes were purchased from Avanti Polar Lipids (Alabaster, Al.) as well as Larodan Fine Chemicals (Malmo, Sweden). Lipids (10 nmol) were suspended in 20 μl spotting buffer (250 μl chloroform, 500 μl methanol, 200 μl 50 mM HCl, 2 μl 1% (w/v) Ponseau S (Sigma, St. Louis, Mo.)) and spotted onto Amersham Hybond-C Extra membranes (GE Healthcare, Piscataway, N.J.) followed by drying for 1 hour in a fume hood. The lipid membranes were then blocked in 3% (w/v) bovine serum albumin (BSA) in TBST buffer (TBS with 0.25% (v/v) Tween 20) for 2 hours at room temperature. Purified DsRED-TGD4-His fusion proteins were added at 1 μg/ml final concentration and incubated overnight at 4° C. followed by washing 3 times in TBST. Lipid membranes were then incubated with 1:2000 diluted His antibody (Sigma) in blocking buffer for 2 hours at room temperature followed by 2 washes with TBST. The membranes were processed for immunoblotting as described below.

- binding to PtdOH species in liposomes [1]: bind
Molecule: CCCCCCCCCCCCCCCC(=O)OC[C@H](COP(=O)(O)O)OC(=O)CCCCCCCCCCCCCCC [dipalmitoyl PtdOH, dipalmitoyl phosphatidic acid]

- binding to PtdOH species in liposomes [1]: appeared to be stronger
Molecule: CCCCCCCCCCCCCCCCCC(=O)OC[C@H](COP(=O)(O)O)OC(=O)CCCCCCCCCCCCCCCCC [distearoyl PtdOH, distearoyl phosphatidic acid]

- PA binding in liposome-association assay ([2]; listed as region between residues 201 and 225 (SEQ ID NO:12)): much less overall binding
Molecule: DR-25: DsRed fused to the TGD2 minimal PA binding domain, residues 201-225 (SEQ ID NO: 12) (IMPRNPIPEPSVGPLHPECGKEGLI; also: fused to DsRed, end not given here; UniProt Q9LTR2 201-225, looked up, fragment)
- PA binding in liposome-association assay ([2]; listed as 25-amino-acid segment): necessary and sufficient for PtdOH binding

B1: DsRED-His: DsRED-His protein itself, control without TGD4 (protein, UniProt Q9U6Y8 1-225, looked up)
Red fluorescent protein …: MRSSKNVIKEFMRFKVRMEGTVNGHEFEIEGEGEGRPYEGHNTVKLKVTKGGPLPFAWDILSPQFQYGSKVYVKHPADIPDYKKLSFPEGFKWERVMNFEDGGVVTVTQDSSLQDGCFIYKVKFIGVNFPSDGPVMQKKTMGWEASTERLYPRDGVLKGEIHKALKLKDGGHYLVEFKSIYMAKKPVQLPGYYYVDSKLDITSHNEDYTIVEQYERTEGRHHLFL
modifications: His-tag
notes: DsRED-His protein itself, control without TGD4
- PtdOH binding affinity of TGD4 derivatives [3]: Except for DsRED-His alone, tested recombinant fusion proteins bound to PtdOH-containing liposomes
- lipid binding in overlay, phospholipids ([4]; commercially available membranes, FIG. 18A): not observed to bind to any of the lipids on either membrane tested
- lipid binding in overlay, plant/chloroplast lipids ([4]; lipids manually spotted onto membranes, FIG. 18B): not observed to bind to any of the lipids on either membrane tested
